Measurements as given in US20120321656A1, “OLIGOPEPTIDES AND THEIR USE FOR TREATING INFECTIOUS DISEASES” (priority 2011, published 2012).

Test system: BALB/c female mouse
Assay: Immune response to individual peptide: mouse immunization, then indirect solid-phase immunoenzymatic assay (ELISA) of serum antibodies to peptide
Type: in vivo
Conditions: BALB/c mice, i.p. 100 μg peptide+Str-HRP with Freund's adjuvant; for Immunogenicity group: serum day 38, ELISA; for Overall ranking of antigenicity / Antigenicity compared to best ranking peptide (Average value calculated by removing outlier which exceeded 1 SD value) / Antigenicity compared to best ranking peptide (Median value): serum day 38, ELISA A450; for Antigenicity compared to best ranking peptide (Average value calculated by removing outlier which exceeded 1 SD value): average without outliers >1 SD

| Substance | Immunogenicity group | Overall ranking of antigenicity | Antigenicity compared to best ranking peptide (Average value calculated by removing outlier which exceeded 1 SD value) | Antigenicity compared to best ranking peptide (Median value) |
| --- | --- | --- | --- | --- |
| A-G-R-R-C-L-D-A-G (AGRRCLDAG; Mycobacterium Tuberculosis Synthetic Peptide) [SEQ ID 11, oligopeptide from MT Cytotoxin/Hemolysin] | intermediate immunogenicity | 6 | 16.5 | 34.2 |
| G-D-N-I-P-A-K-F-L-E-G-T-L-R-T (GDNIPAKFLEGTLRT; Mycobacterium Tuberculosis Synthetic Peptide) [SEQ ID 7, oligopeptide from MT Antigen 85 (Ag 85)] | intermediate immunogenicity | 7 | 11.6 | 73.5 |
| L-R-A-Q-D-D-Y-N-G-W-D-I (LRAQDDYNGWDI; Mycobacterium Tuberculosis Synthetic Peptide) [SEQ ID 4, oligopeptide from MT Antigen 85 (Ag 85)] | relatively strong immunogenicity | 2 | 1.4 | 1.0 |
| N-E-L-G-A-S-Q-A-I-D-L-L-K-G-V (NELGASQAIDLLKGV; Mycobacterium Tuberculosis Synthetic Peptide) [SEQ ID 9, oligopeptide from MT Exported Repetitive Protein (Erp)] | intermediate immunogenicity | 5 | 16.1 | 22.3 |
| S-D-P-A-W-K-R-N-D-P-M-V-Q-I-P-R-L (SDPAWKRNDPMVQIPRL; Mycobacterium Tuberculosis Synthetic Peptide) [SEQ ID 6, oligopeptide from MT Antigen 85 (Ag 85)] | relatively strong immunogenicity | 1 | 1.0 | 1.1 |
| S-M-G-R-D-I-K-V-Q-F-Q-G (SMGRDIKVQFQG; Mycobacterium Tuberculosis Synthetic Peptide) [SEQ ID 3, oligopeptide from MT Antigen 85 (Ag 85)] | intermediate immunogenicity | 11 | 26.5 | 35.8 |
| S-R-Y-N-E-L-V-E-R-G-E-A [SEQ ID 2] | intermediate immunogenicity | 4 | 10.6 | 15.0 |
| T-D-S-E-R-A-W-V-S-R-G-A (TDSERAWVSRGA; Mycobacterium Tuberculosis Synthetic Peptide) [SEQ ID 10, oligopeptide from MT Cytotoxin/Hemolysin] | intermediate immunogenicity | 10 | 27.6 | 24.5 |
| T-D-T-R-S-R-V-E-E-S-R-A-R-L [SEQ ID 1] | intermediate immunogenicity | 8 | 44.5 | 38.1 |
| T-Y-K-W-E-T-F-L-T-R-E-M-P-A (TYKWETFLTREMPA; Mycobacterium Tuberculosis Synthetic Peptide) [SEQ ID 5, oligopeptide from MT Antigen 85 (Ag 85)] | intermediate immunogenicity | 9 | 21.8 | 47.4 |
| V-Y-E-S-T-E-T-T-E-R-P-E-H-H-E-F-K-Q-A (VYESTETTERPEHHEFKQA; Mycobacterium Tuberculosis Synthetic Peptide) [SEQ ID 8, oligopeptide from MT Exported Repetitive Protein (Erp)] | relatively strong immunogenicity | 3 | 4.6 | 4.5 |
